Experimental data reported in US11987648B2, “Cyclohexapeptides as selective somatostatin SST5 receptor agonists” (Heptares Therapeutics Limited, priority 2018, dated 2024).
*1 amine or outer side, *2 acyl side, *3 side chain or, on linkers, in order; H or OH if unused. Where a SMILES comes first, the peptide text is derived from it. Side-chain parts run from the residue outwards. [ ]: non-standard residue; d: D form. The star is where a group is joined. Ala(piperidin-4-yl) = O=C([C@H](CC1CCN([*:3])CC1)N[*:1])[*:2]; dTrp(4-OMe) = COc1cccc2[nH]cc(C[C@@H](N)C(=O)O)c12; X8 = COc1cc2c(cc1OC)CN([*:1])[C@H](C(=O)[*:2])C2; dTrp(4-Me) = Cc1cccc2[nH]cc(C[C@@H](N)C(=O)O)c12; Ala(piperazin-1-yl) = N[C@@H](CN1CCNCC1)C(=O)O; Morpholine(3S-CO) = O=C(O)[C@@H]1COCCN1; Ethylenediamine = C(CN[*:2])N[*:1]; d(hPhe) = N[C@H](CCc1ccccc1)C(=O)O; Hyp = O=C(O)[C@@H]1C[C@@H](O)CN1; NMeF = CN[C@@H](Cc1ccccc1)C(=O)O; hPhe = N[C@@H](CCc1ccccc1)C(=O)O; 3Pal = N[C@@H](Cc1cccnc1)C(=O)O; Cyclohexylmethyl = C1CCC(C*)CC1; Tic = O=C(O)[C@@H]1Cc2ccccc2CN1; Benzyl(4-Cl) = Clc1ccc(C*)cc1; Phg = N[C@H](C(=O)O)c1ccccc1; X9 = O=C(C1CNCCN1[*:1])[*:2]; CO = O=C([*:1])[*:2]; Bn = c1ccc(C*)cc1

Key:
SST2 = SST2 (Homo sapiens, UniProt P30874); assay: Hit Hunter cAMP XS+ assay, SST2 activation via Gi (reduction of forskolin-stimulated cAMP); assay type: cell-based; settings: for Emax: read-out: SST2 (EMax); for EC50: reduction of forskolin-stimulated cAMP, 4-parameter logistic fit, read-out: SST2 pEC50 (converted)
In short: (§1)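 Cells (10,000/well) incubated 30 min at 37 °C with compound under EC80 forskolin ([…] for SST2, 15 μM for SST5). cAMP reduction was detected by enzyme-fragment complementation chemiluminescence after 60 min and 180 min room-temperature reagent steps. Potency and efficacy were both measured.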

SST5 = SST5 (Homo sapiens, UniProt P35346); assay: Hit Hunter cAMP XS+ assay, SST5 activation via Gi (reduction of forskolin-stimulated cAMP); assay type: cell-based; settings: for Emax: read-out: SST5 (EMax); for EC50: reduction of forskolin-stimulated cAMP, 4-parameter logistic fit, read-out: SST5 pEC50 (converted); for SST5/2 Selectivity: selectivity for SST5 over SST2
In short: as §1

Sequence of SST5 (P35346 whole entry): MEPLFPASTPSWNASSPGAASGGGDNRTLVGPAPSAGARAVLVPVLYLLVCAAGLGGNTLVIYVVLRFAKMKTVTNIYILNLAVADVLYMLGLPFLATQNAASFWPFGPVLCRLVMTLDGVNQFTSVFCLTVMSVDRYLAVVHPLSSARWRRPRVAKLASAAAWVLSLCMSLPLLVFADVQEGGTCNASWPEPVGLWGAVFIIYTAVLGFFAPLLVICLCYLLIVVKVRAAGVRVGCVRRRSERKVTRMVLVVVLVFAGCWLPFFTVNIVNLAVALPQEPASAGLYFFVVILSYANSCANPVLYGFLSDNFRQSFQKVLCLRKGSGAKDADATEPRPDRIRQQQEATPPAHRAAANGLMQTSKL
Sequence of SST2 (P30874 whole entry, the tested form may be a part): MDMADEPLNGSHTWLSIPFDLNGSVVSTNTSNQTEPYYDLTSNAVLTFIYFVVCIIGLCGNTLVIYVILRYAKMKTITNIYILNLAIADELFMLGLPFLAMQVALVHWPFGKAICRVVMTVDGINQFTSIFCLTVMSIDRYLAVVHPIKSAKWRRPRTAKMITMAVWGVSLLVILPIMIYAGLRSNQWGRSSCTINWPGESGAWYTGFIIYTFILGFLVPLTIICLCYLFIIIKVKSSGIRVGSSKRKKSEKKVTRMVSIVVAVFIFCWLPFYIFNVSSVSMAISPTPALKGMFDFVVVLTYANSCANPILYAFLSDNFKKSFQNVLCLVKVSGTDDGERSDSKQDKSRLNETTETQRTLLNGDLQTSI

Row | Emax (SST2) | EC50 (SST2) | Emax (SST5) | EC50 (SST5) | SST5/2 Selectivity (SST5) | SMILES
1 | 96.8% | 398 nM | 107% | 0.158 nM | 2108.2 | NCCNC(=O)O[C@@H]1C[C@H]2C(=O)N[C@@H](CCc3ccccc3)C(=O)N[C@H](Cc3c[nH]c4ccccc34)C(=O)N[C@@H](CN3CCNCC3)C(=O)N[C@@H](Cc3ccc(OCC4CCCCC4)cc3)C(=O)N[C@@H](Cc3cccnc3)C(=O)N2C1 [Example 52] (cyclo([3Pal][Hyp]([CO-Ethylenediamine])[hPhe][dW][Ala(piperazin-1-yl)]Y(Cyclohexylmethyl)))
2 | 50.9% | > 10000 nM | 103% | 31.6 nM | 293.1 | NCCNC(=O)O[C@@H]1C[C@H]2C(=O)N[C@H](CCc3ccccc3)C(=O)N[C@H](Cc3c[nH]c4ccccc34)C(=O)N[C@@H](CC3CCNCC3)C(=O)N[C@@H](Cc3ccc(OCC4CCCCC4)cc3)C(=O)N[C@@H](Cc3cccnc3)C(=O)N2C1 [Example 53] (cyclo([3Pal][Hyp]([CO-Ethylenediamine])[d(hPhe)][dW][Ala(piperidin-4-yl)]Y(Cyclohexylmethyl)))
3 | 96.2% | 631 nM | 104% | 0.501 nM | 1083.5 | NCCNC(=O)O[C@@H]1C[C@H]2C(=O)N[C@@H](CCc3ccccc3)C(=O)N[C@H](Cc3c[nH]c4ccccc34)C(=O)N[C@@H](CC3CCNCC3)C(=O)N[C@@H](Cc3ccc(OCC4CCCCC4)cc3)C(=O)N[C@@H](Cc3cccnc3)C(=O)N2C1 [Example 54] (cyclo([3Pal][Hyp]([CO-Ethylenediamine])[hPhe][dW][Ala(piperidin-4-yl)]Y(Cyclohexylmethyl)))
4 | 85.9% | > 10000 nM | 106% | 10 nM | 1120.0 | COc1ccc(C[C@@H]2NC(=O)[C@H](Cc3ccc(OCc4ccccc4)cc3)NC(=O)[C@H](CC3CCNCC3)NC(=O)[C@@H](Cc3c[nH]c4ccccc34)NC(=O)[C@@H](CCc3ccccc3)NC(=O)[C@@H]3C[C@@H](OC(=O)NCCN)CN3C2=O)cc1 [Example 55] (cyclo([Hyp]([CO-Ethylenediamine])[d(hPhe)][dW][Ala(piperidin-4-yl)]Y(Bn)Y(Me)))
5 | 96.5% | 200 nM | 102% | 0.501 nM | 404.6 | CN1C(=O)[C@H](Cc2ccc(OCc3ccccc3)cc2)NC(=O)[C@H](CN2CCNCC2)NC(=O)[C@@H](Cc2c[nH]c3ccccc23)NC(=O)[C@H](CCc2ccccc2)NC(=O)[C@@H]2C[C@@H](OC(=O)NCCN)CN2C(=O)[C@@H]1Cc1ccccc1 [Example 57] (cyclo([Hyp]([CO-Ethylenediamine])[hPhe][dW][Ala(piperazin-1-yl)]Y(Bn)[NMeF]))
6 | 42.9% | > 10000 nM | 103% | 15.8 nM | 695.7 | NCCNC(=O)O[C@@H]1C[C@H]2C(=O)N[C@H](CCc3ccccc3)C(=O)N[C@H](Cc3c[nH]c4ccccc34)C(=O)N[C@@H](CN3CCNCC3)C(=O)N[C@@H](Cc3ccc(OCc4ccc(Cl)cc4)cc3)C(=O)N[C@@H](Cc3cccnc3)C(=O)N2C1 [Example 58] (cyclo([3Pal][Hyp]([CO-Ethylenediamine])[d(hPhe)][dW][Ala(piperazin-1-yl)]Y(Benzyl(4-Cl))))
7 | 95.7% | 501 nM | 106% | 0.631 nM | 738.9 | NCCNC(=O)O[C@@H]1C[C@H]2C(=O)N[C@@H](CCc3ccccc3)C(=O)N[C@H](Cc3c[nH]c4ccccc34)C(=O)N[C@@H](CN3CCNCC3)C(=O)N[C@@H](Cc3ccc(OCc4ccc(Cl)cc4)cc3)C(=O)N[C@@H](Cc3cccnc3)C(=O)N2C1 [Example 59] (cyclo([3Pal][Hyp]([CO-Ethylenediamine])[hPhe][dW][Ala(piperazin-1-yl)]Y(Benzyl(4-Cl))))
8 | 99.8% | 126 nM | 104% | 1 nM | 129.4 | Cc1cccc2[nH]cc(C[C@H]3NC(=O)[C@H](CCc4ccccc4)NC(=O)[C@@H]4C[C@@H](OC(=O)NCCN)CN4C(=O)[C@H](Cc4cccnc4)NC(=O)[C@H](Cc4ccc(OCc5ccccc5)cc4)NC(=O)[C@H](CC4CCNCC4)NC3=O)c12 [Example 60] (cyclo([3Pal][Hyp]([CO-Ethylenediamine])[hPhe][dTrp(4-Me)][Ala(piperidin-4-yl)]Y(Bn)))
9 | 23.4% | > 10000 nM | 103% | 31.6 nM | 291.4 | O=C1N[C@@H](Cc2ccc(OCc3ccccc3)cc2)C(=O)N2Cc3ccccc3C[C@H]2C(=O)N2CCOC[C@H]2C(=O)N[C@H](CCc2ccccc2)C(=O)N[C@H](Cc2c[nH]c3ccccc23)C(=O)N[C@H]1CN1CCNCC1 [Example 61] (cyclo([Tic][Morpholine(3S-CO)][d(hPhe)][dW][Ala(piperazin-1-yl)]Y(Bn)))
10 | 99.4% | 631 nM | 102% | 3.16 nM | 224.3 | O=C1N[C@@H](Cc2ccc(OCc3ccccc3)cc2)C(=O)N2Cc3ccccc3C[C@H]2C(=O)N2CCOC[C@H]2C(=O)N[C@H](CCc2ccccc2)C(=O)N[C@H](Cc2c[nH]c3ccccc23)C(=O)N[C@H]1CC1CCNCC1 [Example 62] (cyclo([Tic][Morpholine(3S-CO)][d(hPhe)][dW][Ala(piperidin-4-yl)]Y(Bn)))
11 | 102% | 63.1 nM | 104% | 2.51 nM | 24.4 | COc1cccc2[nH]cc(C[C@H]3NC(=O)[C@@H](CCc4ccccc4)NC(=O)[C@@H]4COCCN4C(=O)[C@@H]4Cc5ccccc5CN4C(=O)[C@H](Cc4ccc(OCc5ccccc5)cc4)NC(=O)[C@H](CN4CCNCC4)NC3=O)c12 [Example 63] (cyclo([Tic][Morpholine(3S-CO)][d(hPhe)][dTrp(4-OMe)][Ala(piperazin-1-yl)]Y(Bn)))
12 | 100% | 100 nM | 104% | 15.8 nM | 5.5 | COc1cccc2[nH]cc(C[C@H]3NC(=O)[C@H](c4ccccc4)NC(=O)[C@@H]4C[C@@H](OC(=O)NCCN)CN4C(=O)[C@H](Cc4ccccc4)NC(=O)[C@H](Cc4ccc(OCc5ccccc5)cc4)NC(=O)[C@H](CN4CCNCC4)NC3=O)c12 [Example 64] (cyclo(F[Hyp]([CO-Ethylenediamine])[Phg][dTrp(4-OMe)][Ala(piperazin-1-yl)]Y(Bn)))
13 | 91.8% | 1000 nM | 99.4% | 0.398 nM | 2293.7 | O=C1N[C@@H](CCc2ccccc2)C(=O)N[C@H](Cc2c[nH]c3ccccc23)C(=O)N[C@@H](CN2CCNCC2)C(=O)N[C@@H](Cc2ccc(OCc3ccccc3)cc2)C(=O)N2Cc3ccccc3C[C@H]2C(=O)N2CCNCC12 (stereo partly shown) [Example 65] (cyclo([Tic][X9][hPhe][dW][Ala(piperazin-1-yl)]Y(Bn)))
14 | 51.1% | > 10000 nM | 103% | 1.26 nM | 7454.5 | COc1cc2c(cc1OC)CN1C(=O)[C@H](Cc3ccc(OCc4ccccc4)cc3)NC(=O)[C@H](CC3CCNCC3)NC(=O)[C@@H](Cc3c[nH]c4ccccc34)NC(=O)[C@H](CCc3ccccc3)NC(=O)[C@@H]3C[C@@H](OC(=O)NCCN)CN3C(=O)[C@@H]1C2 [Example 66] (cyclo([Hyp]([CO-Ethylenediamine])[hPhe][dW][Ala(piperidin-4-yl)]Y(Bn)[X8]))
